By Cmax is commonly meant the maximum level reached in the sampled fluid or tissue. As a reminder, the solubility is how much of the substance goes into solution per volume. As a reminder, the half-life is the time in which the quantity being followed falls by half. For orientation: Tmax means the time at which the peak concentration occurs. The IC50 is the point on the concentration scale where inhibition reaches its midpoint.

Values after ≈ are worked out from the molar mass of the structure shown. Active and inactive are the calls of the source. The calls are words filed in the database; no cut-off is given here.

The target of data set [1] is T1, Pituitary adenylate cyclase-activating polypeptide type I receptor (Homo sapiens, UniProt P41586). Kind of data set: Antagonist activity at PAC-1 receptor (unknown origin) expressed in CHO cells assessed as inhibition of PACAP-induced CREB phosphorylation at 1 nM pretreated for 30 mins followed by PACAP stimulation for 30 mins by western blot analysis. The class given is cell-based. The note with it: filed as antagonist, time 60.0 min. Background: In western blotting, separated proteins are transferred to a membrane and probed.
Target sequence in this assay (P41586 21-468 limits assumed): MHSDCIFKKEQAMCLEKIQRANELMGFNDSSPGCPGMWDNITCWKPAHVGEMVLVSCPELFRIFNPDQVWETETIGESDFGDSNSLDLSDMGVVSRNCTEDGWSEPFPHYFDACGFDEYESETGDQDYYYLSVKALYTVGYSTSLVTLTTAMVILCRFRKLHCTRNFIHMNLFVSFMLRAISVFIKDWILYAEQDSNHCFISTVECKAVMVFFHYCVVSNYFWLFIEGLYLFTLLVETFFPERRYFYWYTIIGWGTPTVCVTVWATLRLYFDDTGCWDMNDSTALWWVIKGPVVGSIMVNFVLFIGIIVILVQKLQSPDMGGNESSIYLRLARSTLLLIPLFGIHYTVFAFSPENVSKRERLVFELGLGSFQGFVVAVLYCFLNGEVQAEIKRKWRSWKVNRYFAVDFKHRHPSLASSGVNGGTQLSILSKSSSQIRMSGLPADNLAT

The nature of data set [2]: Plasma protein binding in mouse measured after 5 hrs by LC-MS/MS analysis. The class given is ADME, cell-free. The conditions noted are these: read-out: PPB (converted).
Data set [3] in a line: Cmax in C57BL/6J mouse at 30 mg/kg, ip measured up to 24 hrs by LC-MS/MS analysis. The class given is ADME, organism-based. Set-up: time < 24 hrs, dose 30 mg/kg, route ip. The note with it: in vivo.
Data set [4] relates to Mus musculus. Kind of data set: Antiallodynic activity in ddY mouse assessed as inhibition of PACAP-evoked mechanical allodynia at 10 to 100 pmol administered via IT as single dose and measured after 14 days. The class given is functional, organism-based. The conditions noted are these: dose 10-100 pmol, time 14.0 day.
Data set [5] is described as follows: Metabolic stability in human liver microsomes assessed as parent compound remaining in presence of NADPH at 0.5 uM measured after 60 mins by LC-MS/MS analysis. Type of data set: ADME, Microsome. The note with it: read-out: Stability. Background: Liver microsomes are a subcellular fraction often used to study metabolism.
In data set [6] the test system is Mus musculus. Kind of data set: Antiallodynic activity in ddY mouse assessed as inhibition of spinal nerve ligation-evoked mechanical allodynia at 10 pmol administered via IT as single dose and measured after 3 hrs. Type of data set: functional, organism-based.
The test system of data set [7] is Mus musculus. Kind of data set: Antiallodynic activity in ddY mouse assessed as inhibition of spinal nerve ligation-evoked mechanical allodynia at 10 pmol administered via IT as single dose and measured after 2 to 4 hrs. The note with it: time 2-4 hrs. The class given is functional, organism-based.
Data set [8] is described as follows: Aqueous solubility of the compound in phosphate buffered saline at 100 uM at pH 7.4 by HPLC analysis. The class given is physicochemical.
For data set [9], the system named is Mus musculus. Kind of data set: Inhibition of PACAP-induced aversive behaviour in it dosed ddY mouse administered as single dose and measured for 30 mins. The class given is functional, organism-based. The conditions noted are these: dose 10-100 pmol, DDE = dose-dependent effect.
Data set [10] is described as follows: Plasma protein binding in human measured after 5 hrs by LC-MS/MS analysis. The class given is ADME, cell-free. The conditions noted are these: read-out: PPB (converted).
A short description of data set [11]: Metabolic stability in mouse liver microsomes assessed as parent compound remaining in presence of NADPH at 0.5 uM measured after 10 mins by LC-MS/MS analysis. The class given is ADME, Microsome. The note with it: read-out: Stability.
Data set [12] can be described thus: Half life in C57BL/6J mouse at 30 mg/kg, po measured up to 24 hrs by LC-MS/MS analysis. The conditions noted are these: in vivo. The class given is ADME, organism-based.
Data set [13] can be described thus: Cmax in C57BL/6J mouse at 30 mg/kg, po measured up to 24 hrs by LC-MS/MS analysis. Set-up: dose 30 mg/kg, time < 24 hrs, route po. The note with it: in vivo. The class given is ADME, organism-based.
Data set [14] is described as follows: Permeability of the compound across apical to basolateral side in human Caco-2 cells at 25 uM incubated for 2 hrs by LC/MS/MS analysis. The note with it: read-out: permeability. Type of data set: ADME, cell-based. For orientation: Caco-2 cells form a polarised layer with tight junctions and transporters.
The nature of data set [15]: Tmax in C57BL/6J mouse at 30 mg/kg, ip measured up to 24 hrs by LC-MS/MS analysis. Type of data set: ADME, organism-based. The note with it: in vivo.
The nature of data set [16]: Tmax in C57BL/6J mouse at 30 mg/kg, po measured up to 24 hrs by LC-MS/MS analysis. Type of data set: ADME, organism-based. The conditions noted are these: in vivo.
The subject of data set [17] is Mus musculus. Kind of data set: Antiallodynic activity in ddY mouse assessed as inhibition of SNL-induced mechanical allodynia at 30 mg/kg, ip administered once daily for 7 days and measured at 1 hr post-last dosage. The class given is functional, organism-based. The note with it: time 7.0 day.
A short description of data set [18]: Half life in C57BL/6J mouse at 30 mg/kg, ip measured up to 24 hrs by LC-MS/MS analysis. The class given is ADME, organism-based. The note with it: in vivo.
Data set [19] deals with T1, Pituitary adenylate cyclase-activating polypeptide type I receptor. Kind of data set: Antagonist activity at PAC-1 receptor (unknown origin) expressed in CHO cells assessed as inhibition of PACAP-induced increase in intracellular cAMP level pretreated for 30 mins followed by PACAP stimulation measured after 1 hr by cAMP-Glo assay. Type of data set: cell-based. The note with it: for Activity: filed as antagonist, time 90.0 min, DDE = dose-dependent effect.

A short description of data set [20]: Metabolic stability in mouse liver microsomes assessed as parent compound remaining in presence of NADPH at 0.5 uM measured after 60 mins by LC-MS/MS analysis. The class given is ADME, Microsome. The conditions noted are these: read-out: Stability.
Data set [21] is described as follows: Metabolic stability in human liver microsomes assessed as parent compound remaining in presence of NADPH at 0.5 uM measured after 10 mins by LC-MS/MS analysis. Type of data set: ADME, Microsome. The note with it: read-out: Stability.
For data set [22], the system named is Mus musculus. Kind of data set: Antiallodynic activity in ddY mouse assessed as inhibition of SNL-induced mechanical allodynia at 30 mg/kg, ip administered once daily for 7 days and measured for 3 days after termination of repetitive drug administration. Type of data set: functional, organism-based. The note with it: time 7.0 day.

In the case of `CCCCc1cccc(C2CC(=O)Nc3nc(N)[nH]c(=O)c32)c1` (centres undefined), the outcome in [1] was Active.

Consider `Nc1nc2c(c(=O)[nH]1)C(c1ccc(F)c(F)c1)CC(=O)N2` (centres undefined), for which, in data set [1], the result was Active.

As to `CCCOc1cccc(C2CC(=O)Nc3nc(N)[nH]c(=O)c32)c1` (centres undefined), in data set [1], the result was Active.

Turning to `CCCOc1ccc(C2CC(=O)Nc3nc(N)[nH]c(=O)c32)cc1OC` (centres undefined), the result in [1] was Active.

As for `CCCOc1cc(C2CC(=O)Nc3nc(N)[nH]c(=O)c32)ccc1OC` (centres undefined), the outcome in data set [1] was Active.

On to `Nc1nc2c(c(=O)[nH]1)C(c1cccc(Cl)c1)CC(=O)N2` (centres undefined), for which the outcome in data set [1] was Active.

For the compound `C=CCOc1ccc(C2CC(=O)Nc3nc(N)[nH]c(=O)c32)cc1OC` (centres undefined), the figures for the fraction unbound at 5 h in data set [2] and in data set [10] were 0.505 and 0.304, respectively. Further, the Cmax in data set [3] came out at 14.3 µM; in data set [13], 0.79 µM. Besides, the outcome in [4], in [6], in data set [7], in data set [1] and in [17] was Active. The remaining at 1 h, 0.5 µM in [5] came out at 91%; in [20] it was 94%. In addition, the solubility at 100 µM in data set [8] came to 92.2 µM (≈ 31.6 µg/mL). For the same compound, the inhibition result in data set [9] is “Dde”. The remaining at 10 min, 0.5 µM in data set [11] came out at 96%; in data set [21], 93%. The half-life in [12] was 1.72 h; in data set [18], 2.19 h. Moreover, the Papp A→B at 2 h, 25 µM in data set [14] came to 0.3 ×10⁻⁶ cm/s. Also, the Tmax in [15] was 0.67 h; in [16], 0.5 h. Besides, in [19], the IC50 came to 1.48 nM. Moreover, in data set [19], the Activity entry is “Dde”.

In the case of `CCOc1ccc(C2CC(=O)Nc3nc(N)[nH]c(=O)c32)cc1OC` (centres undefined), the result in [1] was Active.

Regarding `COc1cccc(C2CC(=O)Nc3nc(N)[nH]c(=O)c32)c1` (centres undefined), the outcome in [1] was Active.

For the compound `CCCc1cccc(C2CC(=O)Nc3nc(N)[nH]c(=O)c32)c1` (centres undefined), the result in data set [1] was Active.

For the compound `CCOc1ccc(C2CC(=O)Nc3nc(N)[nH]c(=O)c32)cc1Cl` (centres undefined), the outcome in [1] was Active.

As for `CCOc1ccc(C2CC(=O)Nc3nc(N)[nH]c(=O)c32)cc1Br` (centres undefined), in data set [1], the outcome was Active.

`Nc1nc2c(c(=O)[nH]1)C(c1cccc(Br)c1)CC(=O)N2` (centres undefined): the outcome in data set [1] was Active.

As for `C=CCOc1cccc(C2CC(=O)Nc3nc(N)[nH]c(=O)c32)c1` (centres undefined), the result in data set [1] was Active.

As to `CCOc1cccc(C2CC(=O)Nc3nc(N)[nH]c(=O)c32)c1` (centres undefined), the results for the fraction unbound at 5 h in data set [2] and in [10] were 0.474 and 0.345, respectively. The Cmax was determined as 29.3 µM in data set [3] and 1.93 µM in data set [13]. Besides, the result in [4] and in data set [1] was Active. Besides, the remaining at 1 h, 0.5 µM in [5] came to 93%; in [20], 84%. In [8], this compound came in with a solubility at 100 µM of 27.9 µM (≈ 8.38 µg/mL). Further, the inhibition result in data set [9] is “Dde”. The remaining at 10 min, 0.5 µM in data set [11] was 92%; in data set [21], 93%. Also, the results for the half-life in data set [12] and in data set [18] were 1.32 h and 2.29 h, respectively. Also, the Papp A→B at 2 h, 25 µM in data set [14] stood at 0.3 ×10⁻⁶ cm/s. The Tmax in data set [15] and in [16] was 0.25 h in each case.

As to `CCOc1cc(C2CC(=O)Nc3nc(N)[nH]c(=O)c32)ccc1OC` (centres undefined), the result in [1] was Active.

With `Nc1nc2c(c(=O)[nH]1)C(c1cccc(OC(F)(F)F)c1)CC(=O)N2` (centres undefined), the fraction unbound at 5 h in data set [2] was 0.298; in data set [10] it was 0.11. The Cmax was determined as 40.6 µM in data set [3] and 20.8 µM in [13]. Also, the outcome in [4], in data set [6], in data set [7], in [1], in data set [22] and in data set [17] was Active. Further, the figures for the remaining at 1 h, 0.5 µM in [5] and in data set [20] were 92% and 93%, respectively. Also, the concentration in solution in data set [8] (solubility at 100 µM) came to 93.3 µM (≈ 31.7 µg/mL). Moreover, in data set [9], the inhibition result was “Dde”. Besides, the remaining at 10 min, 0.5 µM in data set [11] came out at 91%; in [21], 95%. Further, the half-life was 2.75 h in data set [12] and 2.4 h in [18]. For the same compound, the Papp A→B at 2 h, 25 µM in data set [14] is 1.6 ×10⁻⁶ cm/s. The figures for the Tmax in data set [15] and in data set [16] were 1 h and 0.83 h, respectively. Moreover, the IC50 in data set [19] was 0.11 nM. Moreover, the Activity result in data set [19] is “Dde”.

On to `CCOc1ccc(C2CC(=O)Nc3nc(N)[nH]c(=O)c32)cc1C` (centres undefined), for which the result in [1] was Active.

Consider `CCOc1ccc(C2CC(=O)Nc3nc(N)[nH]c(=O)c32)cc1OCC` (centres undefined), for which the result in [1] was Active.

With `CCc1cccc(C2CC(=O)Nc3nc(N)[nH]c(=O)c32)c1` (centres undefined), the outcome in data set [1] was Active.
